Experimental data as given in US11945813B2, “5-substituted 4-amino-1H-benzo[c][1,2,6]thiadiazine 2,2-dioxides and formulations and uses thereof” (Firmenich Incorporated, priority 2018, dated 2024).

Target: T1, T1R2/T1R3 taste receptor (Homo sapiens, UniProt Q8TE23)
T1 sequence (Q8TE23 20-839): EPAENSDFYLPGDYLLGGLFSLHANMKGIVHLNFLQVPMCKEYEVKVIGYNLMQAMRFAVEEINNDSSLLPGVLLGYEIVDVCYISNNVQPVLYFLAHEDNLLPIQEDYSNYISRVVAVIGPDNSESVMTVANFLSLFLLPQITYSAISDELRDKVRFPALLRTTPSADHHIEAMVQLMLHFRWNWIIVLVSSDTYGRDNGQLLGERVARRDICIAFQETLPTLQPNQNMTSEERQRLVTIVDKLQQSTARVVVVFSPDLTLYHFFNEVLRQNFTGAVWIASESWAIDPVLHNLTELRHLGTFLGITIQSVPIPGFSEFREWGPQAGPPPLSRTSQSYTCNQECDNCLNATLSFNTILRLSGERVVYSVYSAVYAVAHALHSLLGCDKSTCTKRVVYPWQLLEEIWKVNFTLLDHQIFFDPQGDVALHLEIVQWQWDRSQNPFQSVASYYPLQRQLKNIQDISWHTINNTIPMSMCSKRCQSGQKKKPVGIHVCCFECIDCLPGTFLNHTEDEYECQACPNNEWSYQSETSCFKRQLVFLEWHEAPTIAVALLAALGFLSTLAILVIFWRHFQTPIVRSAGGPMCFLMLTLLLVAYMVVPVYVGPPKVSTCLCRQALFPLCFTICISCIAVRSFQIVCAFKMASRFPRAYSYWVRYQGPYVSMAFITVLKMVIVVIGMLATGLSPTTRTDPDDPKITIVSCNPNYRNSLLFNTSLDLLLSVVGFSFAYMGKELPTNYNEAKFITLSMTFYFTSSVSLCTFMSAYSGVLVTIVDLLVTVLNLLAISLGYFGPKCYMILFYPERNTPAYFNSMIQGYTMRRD
T1 sequence (Q7RTX0 21-852 partner): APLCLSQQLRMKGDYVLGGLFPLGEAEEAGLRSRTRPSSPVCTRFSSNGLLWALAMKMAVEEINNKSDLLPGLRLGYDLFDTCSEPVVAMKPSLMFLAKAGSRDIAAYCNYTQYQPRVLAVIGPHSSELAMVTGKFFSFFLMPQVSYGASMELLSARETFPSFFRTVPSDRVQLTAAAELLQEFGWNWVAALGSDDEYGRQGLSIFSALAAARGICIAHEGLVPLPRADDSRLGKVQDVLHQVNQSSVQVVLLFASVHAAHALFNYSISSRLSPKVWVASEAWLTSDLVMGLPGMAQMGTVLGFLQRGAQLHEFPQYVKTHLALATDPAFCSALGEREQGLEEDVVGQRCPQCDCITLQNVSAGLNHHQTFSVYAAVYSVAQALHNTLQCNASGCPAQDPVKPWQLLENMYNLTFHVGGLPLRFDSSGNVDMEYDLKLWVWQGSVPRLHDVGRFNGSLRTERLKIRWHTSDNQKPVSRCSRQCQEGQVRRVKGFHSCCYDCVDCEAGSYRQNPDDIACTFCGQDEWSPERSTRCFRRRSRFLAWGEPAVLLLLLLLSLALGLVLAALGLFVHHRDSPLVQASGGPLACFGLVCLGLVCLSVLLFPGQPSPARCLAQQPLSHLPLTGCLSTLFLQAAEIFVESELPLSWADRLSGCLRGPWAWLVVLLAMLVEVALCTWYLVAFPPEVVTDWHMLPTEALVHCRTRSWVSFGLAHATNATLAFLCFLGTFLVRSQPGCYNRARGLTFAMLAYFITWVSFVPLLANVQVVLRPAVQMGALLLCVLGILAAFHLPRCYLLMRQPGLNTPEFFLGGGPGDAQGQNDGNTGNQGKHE
Assay: Receptor-based assay: sweetener EC50 alone and with test compound (enhancement ratio)
Type: cell-based
Settings: for Fructose Enhancement EC50 Ratio: sweetener fructose; for Sucralose Enhancement EC50 Ratio: sweetener sucralose; for Sucrose Enhancement EC50 Ratio: sweetener sucrose
How it was run: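 Sucrose, sucralose or fructose EC50 measured on human T1R2/T1R3, alone and with 3, 10 or 50 μM test compound. Enhancement is the EC50 ratio without/with compound, binned A >20, B 10-20, C >1 to <10.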

Structure (SMILES): CN(C)C(=O)c1ccnc(N2CCC[C@H](COc3cccc4c3C(N)=NS(=O)(=O)N4)C2)c1 [Compound 610]
- Fructose Enhancement EC50 Ratio (10 μM test compound): C (A “C” value indicates an enhancement ratio greater than 1 and less than 10)
- Fructose Enhancement EC50 Ratio (50 μM test compound): C (A “C” value indicates an enhancement ratio greater than 1 and less than 10)
- Sucralose Enhancement EC50 Ratio (10 μM test compound): A (An “A” value indicates an enhancement ratio of greater than 20)
- Sucralose Enhancement EC50 Ratio (50 μM test compound): A (An “A” value indicates an enhancement ratio of greater than 20)
- Sucrose Enhancement EC50 Ratio (10 μM test compound): C (A “C” value indicates an enhancement ratio greater than 1 and less than 10)
- Sucrose Enhancement EC50 Ratio (50 μM test compound): B (A “B” value indicates an enhancement ratio from 10 to 20)

Structure (SMILES): CCN(CC)C(=O)c1ccnc(N2CCC[C@H](COc3cccc4c3C(N)=NS(=O)(=O)N4)C2)c1 [Compound 611]
- Fructose Enhancement EC50 Ratio (10 μM test compound): C (A “C” value indicates an enhancement ratio greater than 1 and less than 10)
- Sucralose Enhancement EC50 Ratio (10 μM test compound): B (A “B” value indicates an enhancement ratio from 10 to 20)
- Sucralose Enhancement EC50 Ratio (50 μM test compound): A (An “A” value indicates an enhancement ratio of greater than 20)
- Sucrose Enhancement EC50 Ratio (3 μM test compound): C (A “C” value indicates an enhancement ratio greater than 1 and less than 10)
- Sucrose Enhancement EC50 Ratio (10 μM test compound): B (A “B” value indicates an enhancement ratio from 10 to 20)
- Sucrose Enhancement EC50 Ratio (50 μM test compound): C (A “C” value indicates an enhancement ratio greater than 1 and less than 10)

Structure (SMILES): NC1=NS(=O)(=O)Nc2cccc(OC[C@H]3CCCN(c4cc(C(=O)N5CCCC5)ccn4)C3)c21 [Compound 612]
- Fructose Enhancement EC50 Ratio (10 μM test compound): C (A “C” value indicates an enhancement ratio greater than 1 and less than 10)
- Fructose Enhancement EC50 Ratio (50 μM test compound): C (A “C” value indicates an enhancement ratio greater than 1 and less than 10)
- Sucralose Enhancement EC50 Ratio (10 μM test compound): A (An “A” value indicates an enhancement ratio of greater than 20)
- Sucralose Enhancement EC50 Ratio (50 μM test compound): A (An “A” value indicates an enhancement ratio of greater than 20)
- Sucrose Enhancement EC50 Ratio (3 μM test compound): C (A “C” value indicates an enhancement ratio greater than 1 and less than 10)
- Sucrose Enhancement EC50 Ratio (10 μM test compound): C (A “C” value indicates an enhancement ratio greater than 1 and less than 10)
- Sucrose Enhancement EC50 Ratio (50 μM test compound): C (A “C” value indicates an enhancement ratio greater than 1 and less than 10)

Structure (SMILES): NC1=NS(=O)(=O)Nc2cccc(OC[C@H]3CCCN(c4cc(C(=O)N5CCCCC5)ccn4)C3)c21 [Compound 613]
- Sucralose Enhancement EC50 Ratio (10 μM test compound): A (An “A” value indicates an enhancement ratio of greater than 20)
- Sucralose Enhancement EC50 Ratio (50 μM test compound): A (An “A” value indicates an enhancement ratio of greater than 20)
- Sucrose Enhancement EC50 Ratio (10 μM test compound): C (A “C” value indicates an enhancement ratio greater than 1 and less than 10)
- Sucrose Enhancement EC50 Ratio (50 μM test compound): C (A “C” value indicates an enhancement ratio greater than 1 and less than 10)

Structure (SMILES): NC1=NS(=O)(=O)Nc2cccc(OC[C@H]3CCCN(c4cc(C(=O)N5CCOCC5)ccn4)C3)c21 [Compound 614]
- Fructose Enhancement EC50 Ratio (50 μM test compound): C (A “C” value indicates an enhancement ratio greater than 1 and less than 10)
- Sucralose Enhancement EC50 Ratio (10 μM test compound): A (An “A” value indicates an enhancement ratio of greater than 20)
- Sucralose Enhancement EC50 Ratio (50 μM test compound): A (An “A” value indicates an enhancement ratio of greater than 20)
- Sucrose Enhancement EC50 Ratio (3 μM test compound): C (A “C” value indicates an enhancement ratio greater than 1 and less than 10)
- Sucrose Enhancement EC50 Ratio (50 μM test compound): A (An “A” value indicates an enhancement ratio of greater than 20)

Structure (SMILES): CN1CCN(C(=O)c2ccnc(N3CCC[C@H](COc4cccc5c4C(N)=NS(=O)(=O)N5)C3)c2)CC1 [Compound 615]
- Sucralose Enhancement EC50 Ratio (10 μM test compound): A (An “A” value indicates an enhancement ratio of greater than 20)
- Sucralose Enhancement EC50 Ratio (50 μM test compound): A (An “A” value indicates an enhancement ratio of greater than 20)
- Sucrose Enhancement EC50 Ratio (3 μM test compound): C (A “C” value indicates an enhancement ratio greater than 1 and less than 10)
- Sucrose Enhancement EC50 Ratio (10 μM test compound): C (A “C” value indicates an enhancement ratio greater than 1 and less than 10)
- Sucrose Enhancement EC50 Ratio (50 μM test compound): B (A “B” value indicates an enhancement ratio from 10 to 20)

Structure (SMILES): CC(C)CNC(=O)c1ccnc(N2CCC[C@H](COc3cccc4c3C(N)=NS(=O)(=O)N4)C2)c1 [Compound 616]
- Fructose Enhancement EC50 Ratio (50 μM test compound): C (A “C” value indicates an enhancement ratio greater than 1 and less than 10)
- Sucralose Enhancement EC50 Ratio (10 μM test compound): A (An “A” value indicates an enhancement ratio of greater than 20)
- Sucralose Enhancement EC50 Ratio (50 μM test compound): A (An “A” value indicates an enhancement ratio of greater than 20)
- Sucrose Enhancement EC50 Ratio (3 μM test compound): C (A “C” value indicates an enhancement ratio greater than 1 and less than 10)
- Sucrose Enhancement EC50 Ratio (10 μM test compound): C (A “C” value indicates an enhancement ratio greater than 1 and less than 10)
- Sucrose Enhancement EC50 Ratio (50 μM test compound): C (A “C” value indicates an enhancement ratio greater than 1 and less than 10)

Structure (SMILES): NC1=NS(=O)(=O)Nc2cccc(OC[C@H]3CCCN(c4cc(C(=O)NCC5CC5)ccn4)C3)c21 [Compound 617]
- Fructose Enhancement EC50 Ratio (10 μM test compound): C (A “C” value indicates an enhancement ratio greater than 1 and less than 10)
- Fructose Enhancement EC50 Ratio (50 μM test compound): C (A “C” value indicates an enhancement ratio greater than 1 and less than 10)
- Sucralose Enhancement EC50 Ratio (10 μM test compound): A (An “A” value indicates an enhancement ratio of greater than 20)
- Sucralose Enhancement EC50 Ratio (50 μM test compound): A (An “A” value indicates an enhancement ratio of greater than 20)
- Sucrose Enhancement EC50 Ratio (3 μM test compound): C (A “C” value indicates an enhancement ratio greater than 1 and less than 10)
- Sucrose Enhancement EC50 Ratio (10 μM test compound): C (A “C” value indicates an enhancement ratio greater than 1 and less than 10)
- Sucrose Enhancement EC50 Ratio (50 μM test compound): C (A “C” value indicates an enhancement ratio greater than 1 and less than 10)

Structure (SMILES): NC1=NS(=O)(=O)Nc2cccc(OC[C@H]3CCCN(c4cc(C(=O)NCC5CCCCC5)ccn4)C3)c21 [Compound 618]
- Fructose Enhancement EC50 Ratio (50 μM test compound): C (A “C” value indicates an enhancement ratio greater than 1 and less than 10)
- Sucralose Enhancement EC50 Ratio (10 μM test compound): B (A “B” value indicates an enhancement ratio from 10 to 20)
- Sucralose Enhancement EC50 Ratio (50 μM test compound): B (A “B” value indicates an enhancement ratio from 10 to 20)
- Sucrose Enhancement EC50 Ratio (3 μM test compound): C (A “C” value indicates an enhancement ratio greater than 1 and less than 10)
- Sucrose Enhancement EC50 Ratio (10 μM test compound): C (A “C” value indicates an enhancement ratio greater than 1 and less than 10)
- Sucrose Enhancement EC50 Ratio (50 μM test compound): C (A “C” value indicates an enhancement ratio greater than 1 and less than 10)
